Entries after “also recorded” stand apart in the source; their conditions may differ.
Columns and labels:
[1] = tested on: NMDA receptor; assay: whole cell current elicited by NMDA in Xenopus oocytes injected with NMDA R1 and R2 subunit cRNAs; type: cell-based; conditions: FIG. 34
Text: FIG. 34 is a graph shorting the % maximal current peak elicited by NMDA, octopamine and tyramine compounds in the presence of a given NMDA concentration. […].
The precise mechanism of NTox that leads to the destruction of neurons is only partially characterized. Based upon extensive testing with receptor antagonists, it has been discovered that two classes of neurotransmitter receptors are involved--the n-methyl D-aspartate (NMDA) class of […] receptors and the Muscarinic (M receptors) class of cholinergic receptors. […] […]. Further study to determine if tyramine compounds act upon the NMDA receptor itself involved expression of the NMDA receptor complex in Xenopus oocytes and measurement of ionic fluxes across the oocyte membrane that are elicited by NMDA. […] […]. […] Thus, tyramine compounds appear to have several actions, one of which is upon the NMDA receptor.

[2] = tested on: HEK cells expressing NMDA1b/2A; assay: NTox killing of HEK cells expressing NMDA receptors, trypan blue; type: cell-based, human; conditions: 1 nM NTox, 24 hours
Text: Photomicrograph of trypan blue(+) control HEK cells exposed to NTox. Few blue, dead cells are noted.

[3] = tested on: NTox; assay: protection of neurons against isolated NTox applied directly; type: cell-based
[4] = tested on: AMAA; assay: protection of neurons against AMAA; type: cell-based; conditions: FIG. 32
Text: (§1) FIG. 32 is a graph showing the specificity of tyramine compounds to NTox. […]

[5] = tested on: Aβ1-42-stimulated microglia; type: cell-based, rat
Summary of the method: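 E18 rat hippocampal cultures, microglia depleted with saporin–ac-LDL (10 μg/ml, 12 h) on day 14, then given test substances at 10μM with or without exogenous microglia (100,000 cells) for 72 h. Neurons immunostained (NF plus MAP-2) and nuclei counted by fluorescence microscopy; survival expressed as % of parallel untreated controls.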

[6] = tested on: human microglia stimulated with S5; type: cell-based;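 note: drugs applied at 10 µM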
[7] = tested on: quinolinic acid (QUIN); assay: protection of neurons against quinolinic acid; type: cell-based; conditions: QUIN (100 μM in FIG. 13)
Text: as §1

`C[C@]12N[C@H](Cc3ccccc31)c1ccccc12` [MK-801] was tested, and the “effect on current elicited by NMDA” value [1] was “could be blocked”, the “blocking of NTox killing” value [2] was “could be blocked” and the “neuroprotective effects against NTox, concentration range” value [3] was about 100 nM. The “inhibition of killing action of NTox applied to neurons” value ([3]; isolated NTox, FIGS. 13, 32) was “NTox can be blocked”, the “protection against AMAA” value [4] was “prevented from killing neurons” and the “drug blockade of neuron killing, rat microglia” value [5] was “prevented neuronal loss; also recorded: blocked neuron death”. The “drug blockade of neuron killing, human microglia” value [6] was “blocked neuron death” and the “protection against quinolinic acid” value [7] was “prevented from killing neurons”.
